These are literature values, as cited in patent publication US20030144259A1, “Breast cancer hormonal therapy” (priority 2000, published 2003).

The structures appear in SMILES notation.

For the data set the following is noted: human, in vivo; cited from earlier work.

Regarding `CCC1(c2ccc(N)cc2)CCC(=O)NC1=O` (stereo not shown) [aminoglutethimide], the dizziness is reported as 15%; the lethargy is recorded as 36%; the nausea and vomiting is listed as 10%; the “patients requiring discontinuation of drug” value is reported as “about 5%”. For the same molecule, the “patients with side effects” value is reported as “about 35%”, the severe myelosuppression result is on record as “less than 1%” and the transient maculopapular rash is given as 25%.
